Assay results published in ChEMBL document CHEMBL3124908, “Design, synthesis, and evaluation of novel heteroaromatic analogs of curcumin as anti-cancer agents” (Eur J Med Chem, 2014).

Tests used:
DU-145 = assay: Cytotoxicity against human DU145 cells after 5 days by trypan blue exclusion assay; assay type: functional, cell-based; details: DU-145, 120 h
PC-3 = assay: Cytotoxicity against human PC3 cells after 5 days by trypan blue exclusion assay; assay type: functional, cell-based; details: PC-3, 120 h
MDA-MB-231 = assay: Cytotoxicity against human MDA-MB-231 cells after 5 days by trypan blue exclusion assay; assay type: functional, cell-based; details: MDA-MB-231, 120 h
A549 = assay: Cytotoxicity against human A549 cells after 5 days by trypan blue exclusion assay; assay type: functional, cell-based; details: A549, 120 h
HeLa = assay: Cytotoxicity against human HeLa cells after 5 days by trypan blue exclusion assay; assay type: functional, cell-based; details: 120 h
[1] = Cytotoxicity against human MCF10A cells up to 1 uM after 5 days by trypan blue exclusion assay; assay type: cell-based; details: mcf-10a, 120 h

Molecule Cn1ccnc1/C=C1\CCC/C(=C\c2nccn2C)C1=O has an IC50 (DU-145) of 630 nM and an IC50 (PC-3) of 94 nM.
CN1C/C(=C\c2nccn2C)C(=O)/C(=C/c2nccn2C)C1 gave an IC50 (DU-145) of 130 nM and an IC50 (PC-3) of 93 nM.
Cn1ccnc1/C=C/C(=O)/C=C/c1nccn1C showed an IC50 (DU-145) of 57 nM and an IC50 (PC-3) of 110 nM.
CC(C)n1ccnc1/C=C/C(=O)/C=C/c1nccn1C(C)C showed an IC50 (DU-145) of 54 nM and an IC50 (PC-3) of 89 nM.
CCC(C)n1ccnc1/C=C/C(=O)/C=C/c1nccn1C(C)CC (centres undefined) gave an IC50 (MDA-MB-231) of 130 nM, an IC50 (DU-145) of 35 nM and an IC50 (A549) of 100 nM. For the same molecule, the IC50 (PC-3) was 63 nM, the IC50 (HeLa) was 62 nM and the Activity [1] was “Non-toxic”.
With CC(C)Cn1ccnc1/C=C/C(=O)/C=C/c1nccn1CC(C)C the IC50 (MDA-MB-231) was 150 nM, the IC50 (DU-145) was 57 nM and the IC50 (A549) was 110 nM. For the same molecule, the IC50 (PC-3) was 46 nM, the IC50 (HeLa) was 390 nM and the Activity [1] was “Non-toxic”.
Cn1nccc1/C=C/C(=O)/C=C/c1ccnn1C showed an IC50 (DU-145) of 160 nM and an IC50 (PC-3) of 130 nM.
For O=C(/C=C/c1nccs1)/C=C/c1nccs1, the IC50 (DU-145) was 55 nM and the IC50 (PC-3) was 68 nM.
For O=C(/C=C/c1cscn1)/C=C/c1cscn1, the IC50 (DU-145) was 96 nM and the IC50 (PC-3) was 94 nM.
Work on Cc1nc(/C=C/C(=O)/C=C/c2coc(C)n2)co1 yielded an IC50 (DU-145) of 750 nM and an IC50 (PC-3) of 840 nM.
Cc1cc(/C=C/C(=O)/C=C/c2cc(C)on2)no1 gave an IC50 (DU-145) of 42 nM and an IC50 (PC-3) of 250 nM.
For Cc1cc(/C=C/C(=O)/C=C/c2cc(C)no2)on1, the IC50 (MDA-MB-231) was 156 nM, the IC50 (DU-145) was 16 nM and the IC50 (A549) was 160 nM. For the same molecule, the IC50 (PC-3) was 41 nM, the IC50 (HeLa) was 190 nM and the Activity [1] was “Non-toxic”.
In the case of O=C(/C=C/c1ccccn1)/C=C/c1ccccn1, the IC50 (MDA-MB-231) is reported as 97 nM, the IC50 (DU-145) is reported as 20 nM and the IC50 (A549) is reported as 51 nM. For the same molecule, the IC50 (PC-3) was 33 nM, the IC50 (HeLa) was 120 nM and the Activity [1] was “Non-toxic”.
For CC(C)n1ccnc1/C=C1\CN(C)C/C(=C\c2nccn2C(C)C)C1=O, the IC50 (DU-145) was 140 nM and the IC50 (PC-3) was 110 nM.
CCC(C)n1ccnc1/C=C1\CN(C)C/C(=C\c2nccn2C(C)CC)C1=O (centres undefined) gave an IC50 (DU-145) of 10 nM and an IC50 (PC-3) of 6630 nM.
Work on CN1C/C(=C\c2cnn(C)c2)C(=O)/C(=C/c2cnn(C)c2)C1 yielded an IC50 (PC-3) of 76000 nM.
Work on CN1C/C(=C\c2ccnn2C)C(=O)/C(=C/c2ccnn2C)C1 yielded an IC50 (DU-145) of 1640 nM and an IC50 (PC-3) of 1020 nM.
With CN1C/C(=C\c2nccs2)C(=O)/C(=C/c2nccs2)C1 the IC50 (DU-145) was 46 nM and the IC50 (PC-3) was 420 nM.
Work on CN1C/C(=C\c2cscn2)C(=O)/C(=C/c2cscn2)C1 yielded an IC50 (DU-145) of 430 nM and an IC50 (PC-3) of 800 nM.
Work on Cc1nc(/C=C2\CN(C)C/C(=C\c3coc(C)n3)C2=O)co1 yielded an IC50 (DU-145) of 76 nM and an IC50 (PC-3) of 310 nM.
In the case of Cc1cc(/C=C2\CN(C)C/C(=C\c3cc(C)on3)C2=O)no1, the IC50 (DU-145) is reported as 34 nM and the IC50 (PC-3) is reported as 140 nM.
Work on Cc1cc(/C=C2\CN(C)C/C(=C\c3cc(C)no3)C2=O)on1 yielded an IC50 (DU-145) of 690 nM and an IC50 (PC-3) of 130 nM.
CC(C)n1ccnc1/C=C1\CCC/C(=C\c2nccn2C(C)C)C1=O showed an IC50 (DU-145) of 100 nM and an IC50 (PC-3) of 160 nM.
Work on CCC(C)n1ccnc1/C=C1\CCC/C(=C\c2nccn2C(C)CC)C1=O (centres undefined) yielded an IC50 (DU-145) of 250 nM and an IC50 (PC-3) of 830 nM.
Molecule CC(C)Cn1ccnc1/C=C1\CCC/C(=C\c2nccn2CC(C)C)C1=O has an IC50 (DU-145) of 360 nM and an IC50 (PC-3) of 470 nM.
Cn1cc(/C=C2\CCC/C(=C\c3cnn(C)c3)C2=O)cn1 gave an IC50 (DU-145) of 90000 nM and an IC50 (PC-3) of 130000 nM.
Cn1nccc1/C=C1\CCC/C(=C\c2ccnn2C)C1=O showed an IC50 (DU-145) of 730 nM and an IC50 (PC-3) of 260 nM.
With O=C1/C(=C/c2nccs2)CCC/C1=C\c1nccs1 the IC50 (DU-145) was 120 nM and the IC50 (PC-3) was 110 nM.
In the case of O=C1/C(=C/c2cscn2)CCC/C1=C\c1cscn1, the IC50 (DU-145) is reported as 75 nM and the IC50 (PC-3) is reported as 120 nM.
For Cc1nc(/C=C2\CCC/C(=C\c3coc(C)n3)C2=O)co1, the IC50 (DU-145) was 1650 nM and the IC50 (PC-3) was 1970 nM.
Cc1cc(/C=C2\CCC/C(=C\c3cc(C)on3)C2=O)no1 gave an IC50 (DU-145) of 70 nM and an IC50 (PC-3) of 71 nM.
Molecule Cc1cc(/C=C2\CCC/C(=C\c3cc(C)no3)C2=O)on1 has an IC50 (DU-145) of 340 nM and an IC50 (PC-3) of 54 nM.
For COc1cc(/C=C/C(=O)CC(=O)/C=C/c2ccc(O)c(OC)c2)ccc1O [CURCUMIN], the IC50 (MDA-MB-231) was 880 nM, the IC50 (DU-145) was 300 nM and the IC50 (A549) was 15000 nM. It also gave an IC50 (PC-3) of 1980 nM and an IC50 (HeLa) of 12600 nM.
